Patent US20080026996A1, “Selective Vpac2 Receptor Reptide Agonists” (ELI LILLY AND COMPANY, priority 2004, published 2008)
Where a SMILES comes first, the peptide text is derived from it. Where no end group is shown, it is not given here. [ ]: non-standard residue; d: D form. The star is where a group is joined. Orn = NCCC[C@H](N)C(=O)O; Hexanoyl = CCCCCC(=O)*; Aib = CC(C)(N)C(=O)O

Experiments:
human VPAC2 [1] = molecular target: T1, human VPAC2 (Homo sapiens, UniProt P41587); assay: Alpha screen cAMP in vitro potency, human VPAC2 receptor; format: cell-based; settings: cAMP generation; single result from two analyses performed in a single run; read-out: Human VPAC2 Receptor: Alpha Screen EC50
T1 construct: expressed in transfected cells
T1 sequence (P41587 24-438): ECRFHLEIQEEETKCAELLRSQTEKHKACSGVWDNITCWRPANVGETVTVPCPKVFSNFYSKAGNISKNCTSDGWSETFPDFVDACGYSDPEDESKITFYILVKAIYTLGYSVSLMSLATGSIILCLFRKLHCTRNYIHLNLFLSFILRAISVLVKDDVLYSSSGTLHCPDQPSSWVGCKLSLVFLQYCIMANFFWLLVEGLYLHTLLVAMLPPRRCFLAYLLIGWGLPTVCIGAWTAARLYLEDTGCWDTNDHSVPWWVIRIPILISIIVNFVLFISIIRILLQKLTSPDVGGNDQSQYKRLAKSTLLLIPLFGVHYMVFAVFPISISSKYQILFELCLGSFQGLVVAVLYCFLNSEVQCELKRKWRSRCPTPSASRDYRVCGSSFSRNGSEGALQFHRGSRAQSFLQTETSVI
How it was run: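 Dissociated cells, 50,000 per point in stimulation buffer, were incubated with stimuli and AlphaScreen acceptor beads for 60 min.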

[2] = Rat serum stability studies (remaining active peptide by DiscoveRx cAMP on CHO-VPAC2 cells); format: in vitro ADME
Method: Store the aliquot with aprotinin at 4° C. Store the aliquot without aprotinin at 37° C. […] […] Incubate in room temperature for 30 minutes. Remove the supernatant. […] Incubate on the shaker (300 rpm) for 1 hour. Proceed as normal with the DiscoveRx kit. Include cAMP standards in column 12. Determine EC50 values from the cAMP assay data.

human VPAC2 [3] = molecular target: T1, human VPAC2; assay: Filter binding assay, membranes of stable VPAC2 cell line, 125I-labeled VIP tracer (Table 2); settings: read-out: Human VPAC2 Receptor Binding
How it was run: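 Competition binding of agonists against radiotracer on receptor membranes (2.5 μg) in 25 mM HEPES pH 7.4 with 0.5% protease-free BSA, about 40000 cpm tracer, 1 hour with shaking. Bound tracer was separated by filtration on PEI-presoaked, BSA-blocked glass-fibre filters, washed and counted by scintillation.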

## CCCCCC(=O)N[C@@H](Cc1c[nH]cn1)C(=O)N[C@@H](CO)C(=O)N[C@@H](CC(=O)O)C(=O)N[C@@H](C)C(=O)N[C@H](C(=O)N[C@@H](Cc1ccccc1)C(=O)N[C@H](C(=O)N[C@@H](CC(=O)O)C(=O)N[C@@H](CC(N)=O)C(=O)N[C@@H](Cc1ccc(O)cc1)C(=O)N[C@H](C(=O)N[C@@H](CCCNC(=N)N)C(=O)N[C@@H](CC(C)C)C(=O)N[C@@H](CCCNC(=N)N)C(=O)N[C@@H](CCCNC(=N)N)C(=O)N[C@@H](CCC(N)=O)C(=O)N[C@H](C(=O)N[C@@H](C)C(=O)N[C@@H](C)C(=O)N[C@@H](CCCCN)C(=O)N[C@@H](CCCNC(=N)N)C(=O)N[C@@H](Cc1ccc(O)cc1)C(=O)N[C@@H](CC(C)C)C(=O)N[C@@H](CCC(N)=O)C(=O)N[C@@H](CO)C(=O)N[C@H](C(=O)N[C@@H](CCCNC(=N)N)C(=O)N[C@@H](CC(N)=O)C(=O)NCC(=O)NCC(=O)N1CCC[C@H]1C(=O)N[C@@H](CO)C(=O)N[C@@H](CO)C(=O)NCC(=O)N[C@@H](C)C(=O)N1CCC[C@H]1C(=O)N1CCC[C@H]1C(=O)N1CCC[C@H]1C(=O)N[C@@H](CO)C(=O)O)[C@@H](C)CC)C(C)C)[C@@H](C)O)[C@@H](C)O)C(C)C [Agonist P215] (Hexanoyl-HSDAVFTDNYTRLRRQVAAKRYLQSIRNGGPSSGAPPPS-OH; C-terminus assumed)
Human VPAC2 [1]
  EC50: 0.09 nM
[2]
  Rat Serum Stability (estimated purity in % after 18 hours): 0.08%

## CCCCCC(=O)N[C@@H](Cc1c[nH]cn1)C(=O)N[C@@H](CO)C(=O)N[C@@H](CC(=O)O)C(=O)N[C@@H](C)C(=O)N[C@H](C(=O)N[C@@H](Cc1ccccc1)C(=O)N[C@H](C(=O)N[C@@H](CC(=O)O)C(=O)N[C@@H](CC(N)=O)C(=O)N[C@@H](Cc1ccc(O)cc1)C(=O)N[C@H](C(=O)N[C@@H](CCCNC(=N)N)C(=O)N[C@@H](CC(C)C)C(=O)N[C@@H](CCCNC(=N)N)C(=O)NC(C)(C)C(=O)N[C@@H](CCC(N)=O)C(=O)N[C@H](C(=O)N[C@@H](C)C(=O)N[C@@H](C)C(=O)NC(C)(C)C(=O)N[C@@H](CCCCN)C(=O)N[C@@H](Cc1ccc(O)cc1)C(=O)N[C@@H](CC(C)C)C(=O)N[C@@H](CCC(N)=O)C(=O)N[C@@H](CO)C(=O)N[C@H](C(=O)N[C@@H](CCCCN)C(=O)N[C@@H](CCCCN)C(=O)NCC(=O)NCC(=O)N1CCC[C@H]1C(=O)N[C@@H](CO)C(=O)N[C@@H](CO)C(=O)NCC(=O)N[C@@H](C)C(=O)N1CCC[C@H]1C(=O)N1CCC[C@H]1C(=O)N1CCC[C@H]1C(=O)N[C@@H](CO)C(=O)O)[C@@H](C)CC)C(C)C)[C@@H](C)O)[C@@H](C)O)C(C)C [Agonist P351]
Human VPAC2 [1]
  EC50: 0.11 nM
[2]
  Rat Serum Stability (estimated purity in % after 18 hours): 18.52%

## CCCCCC(=O)N[C@@H](Cc1c[nH]cn1)C(=O)N[C@@H](CO)C(=O)N[C@@H](CC(=O)O)C(=O)N[C@@H](C)C(=O)N[C@H](C(=O)N[C@@H](Cc1ccccc1)C(=O)N[C@H](C(=O)N[C@@H](CC(=O)O)C(=O)N[C@@H](CC(N)=O)C(=O)N[C@@H](Cc1ccc(O)cc1)C(=O)N[C@H](C(=O)N[C@@H](CCCNC(=N)N)C(=O)N[C@@H](CC(C)C)C(=O)N[C@@H](CCCNC(=N)N)C(=O)NC(C)(C)C(=O)N[C@@H](CCC(N)=O)C(=O)N[C@H](C(=O)N[C@@H](C)C(=O)N[C@@H](C)C(=O)NC(C)(C)C(=O)N[C@@H](CCCCN)C(=O)N[C@@H](Cc1ccc(O)cc1)C(=O)N[C@@H](CC(C)C)C(=O)N[C@@H](CCC(N)=O)C(=O)N[C@@H](CO)C(=O)N[C@H](C(=O)N[C@@H](CCCCN)C(=O)NC(C)(C)C(=O)NCC(=O)NCC(=O)N1CCC[C@H]1C(=O)N[C@@H](CO)C(=O)N[C@@H](CO)C(=O)NCC(=O)N[C@@H](C)C(=O)N1CCC[C@H]1C(=O)N1CCC[C@H]1C(=O)N1CCC[C@H]1C(=O)N[C@@H](CO)C(=O)O)[C@@H](C)CC)C(C)C)[C@@H](C)O)[C@@H](C)O)C(C)C [Agonist P355]
Human VPAC2 [1]
  EC50: 0.1 nM
[2]
  Rat Serum Stability (estimated purity in % after 18 hours): 35.94%

## CCCCCC(=O)N[C@@H](Cc1c[nH]cn1)C(=O)N[C@@H](CO)C(=O)N[C@@H](CC(=O)O)C(=O)N[C@@H](C)C(=O)N[C@H](C(=O)N[C@@H](Cc1ccccc1)C(=O)N[C@H](C(=O)N[C@@H](CC(=O)O)C(=O)N[C@@H](CC(N)=O)C(=O)N[C@@H](Cc1ccc(O)cc1)C(=O)N[C@H](C(=O)N[C@@H](CCCN)C(=O)N[C@@H](CC(C)C)C(=O)N[C@@H](CCCNC(=N)N)C(=O)NC(C)(C)C(=O)N[C@@H](CCC(N)=O)C(=O)N[C@H](C(=O)N[C@@H](C)C(=O)N[C@@H](C)C(=O)NC(C)(C)C(=O)N[C@@H](CCCCN)C(=O)N[C@@H](Cc1ccc(O)cc1)C(=O)N[C@@H](CC(C)C)C(=O)N[C@@H](CCC(N)=O)C(=O)N[C@@H](CO)C(=O)N[C@H](C(=O)N[C@@H](CCCN)C(=O)N[C@@H](CC(N)=O)C(=O)N[C@@H](CCCN)C(=O)NCC(=O)NCC(=O)N1CCC[C@H]1C(=O)N[C@@H](CO)C(=O)N[C@@H](CO)C(=O)NCC(=O)N[C@@H](C)C(=O)N1CCC[C@H]1C(=O)N1CCC[C@H]1C(=O)N1CCC[C@H]1C(=O)N[C@@H](CO)C(=O)O)[C@@H](C)CC)[C@@H](C)CC)[C@@H](C)O)[C@@H](C)O)C(C)C [Agonist P365] (Hexanoyl-HSDAVFTDNYT[Orn]LR[Aib]QIAA[Aib]KYLQSI[Orn]N[Orn]GGPSSGAPPPS-OH; C-terminus assumed)
Human VPAC2 [1]
  EC50: 0.13 nM
[2]
  Rat Serum Stability (estimated purity in % after 18 hours): 91.13%

## Hexanoyl-HSDAVFTDNYTRLRKQVAAKKYTQSIKNKRYGGPSSGAPPPS [Agonist P232]
Human VPAC2 [1]
  EC50: 1.94 nM
[2]
  Rat Serum Stability (estimated purity in % after 18 hours): <5.00%

## CCCCCC(=O)N[C@@H](Cc1c[nH]cn1)C(=O)N[C@@H](CO)C(=O)N[C@@H](CC(=O)O)C(=O)N[C@@H](C)C(=O)N[C@H](C(=O)N[C@@H](Cc1ccccc1)C(=O)N[C@H](C(=O)N[C@@H](CC(=O)O)C(=O)N[C@@H](CC(N)=O)C(=O)N[C@@H](Cc1ccc(O)cc1)C(=O)N[C@H](C(=O)N[C@@H](CCCN)C(=O)N[C@@H](CC(C)C)C(=O)N[C@@H](CCCNC(=N)N)C(=O)NC(C)(C)C(=O)N[C@@H](CCC(N)=O)C(=O)N[C@@H](CC(C)C)C(=O)N[C@@H](C)C(=O)N[C@@H](C)C(=O)NC(C)(C)C(=O)N[C@@H](CCCCN)C(=O)N[C@@H](Cc1ccc(O)cc1)C(=O)N[C@@H](CC(C)C)C(=O)N[C@@H](CCC(N)=O)C(=O)N[C@@H](CO)C(=O)N[C@H](C(=O)N[C@@H](CCCN)C(=O)N[C@@H](CC(N)=O)C(=O)N[C@@H](CCCN)C(=O)NCC(=O)NCC(=O)N1CCC[C@H]1C(=O)N[C@@H](CO)C(=O)N[C@@H](CO)C(=O)NCC(=O)N[C@@H](C)C(=O)N1CCC[C@H]1C(=O)N1CCC[C@H]1C(=O)N1CCC[C@H]1C(=O)N[C@@H](CO)C(=O)O)[C@@H](C)CC)[C@@H](C)O)[C@@H](C)O)C(C)C [Agonist P364] (Hexanoyl-HSDAVFTDNYT[Orn]LR[Aib]QLAA[Aib]KYLQSI[Orn]N[Orn]GGPSSGAPPPS-OH; C-terminus assumed)
Human VPAC2 [1]
  EC50: 0.11 nM
[2]
  Rat Serum Stability (estimated purity in % after 18 hours): 86.23%

## CCCCCC(=O)N[C@@H](Cc1c[nH]cn1)C(=O)N[C@@H](CO)C(=O)N[C@@H](CC(=O)O)C(=O)N[C@@H](C)C(=O)N[C@H](C(=O)N[C@@H](Cc1ccccc1)C(=O)N[C@H](C(=O)N[C@@H](CC(=O)O)C(=O)N[C@@H](CC(N)=O)C(=O)N[C@@H](Cc1ccc(O)cc1)C(=O)N[C@H](C(=O)N[C@@H](CCCNC(=N)N)C(=O)N[C@@H](CC(C)C)C(=O)N[C@@H](CCCNC(=N)N)C(=O)N[C@@H](CCCNC(=N)N)C(=O)N[C@@H](CCC(N)=O)C(=O)N[C@H](C(=O)N[C@@H](C)C(=O)N[C@@H](C)C(=O)N[C@@H](CCCNC(=N)N)C(=O)N[C@@H](CCCCN)C(=O)N[C@@H](Cc1ccc(O)cc1)C(=O)N[C@@H](CC(C)C)C(=O)N[C@@H](CCC(N)=O)C(=O)N[C@@H](CO)C(=O)N[C@H](C(=O)N[C@@H](CCCNC(=N)N)C(=O)N[C@@H](CC(N)=O)C(=O)NCC(=O)NCC(=O)N1CCC[C@H]1C(=O)N[C@@H](CO)C(=O)N[C@@H](CO)C(=O)NCC(=O)N[C@@H](C)C(=O)N1CCC[C@H]1C(=O)N1CCC[C@H]1C(=O)N1CCC[C@H]1C(=O)N[C@@H](CO)C(=O)O)[C@@H](C)CC)C(C)C)[C@@H](C)O)[C@@H](C)O)C(C)C [Agonist P216] (Hexanoyl-HSDAVFTDNYTRLRRQVAARKYLQSIRNGGPSSGAPPPS-OH; C-terminus assumed)
Human VPAC2 [1]
  EC50: 0.11 nM
[2]
  Rat Serum Stability (estimated purity in % after 18 hours): 0.06%

## Hexanoyl-HSDAVFTDNYTRLRKQVAAKKYLQSIKNKRFGGPSSGAPPPS [Agonist P203]
Human VPAC2 [1]
  EC50: 0.14 nM
Human VPAC2 [3]
  IC50: 0.18 nM
[2]
  Rat Serum Stability (estimated purity in % after 18 hours): <0.09%
